Key:
Test in all cases: Kinase selectivity, DiscoverX scanMAX Kinase assay panel (% control)
Assay type in all cases: binding
[1] = target: T1, kinases of the scanMAX Kinase assay panel (Homo sapiens, UniProt Q9H1R3); settings: MYLK2; 1 uM
T1 construct: purchased DiscoverX Co. (contract measurement) scanMAX Kinase assay panel
In short: (§1)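 Read-out is % control, normalised so a positive-control compound sits at 0% and DMSO at 100%: (test − positive)/(negative − positive)×100. Each kinase received the compound at 1 uM in DMSO. A value below 35% counts as activity.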

[2] = target: T2, kinases of the scanMAX Kinase assay panel (Homo sapiens, UniProt Q13557); settings: CAMK2D; 1 uM
T2 construct: purchased DiscoverX Co. (contract measurement) scanMAX Kinase assay panel
In short: as §1

[3] = target: T3, kinases of the scanMAX Kinase assay panel (Homo sapiens, UniProt P54646); settings: AMPK-alpha2; 1 uM
T3 construct: purchased DiscoverX Co. (contract measurement) scanMAX Kinase assay panel
In short: as §1

[4] = target: T4, kinases of the scanMAX Kinase assay panel (Homo sapiens, UniProt P49760); settings: CLK2; 1 uM
T4 construct: purchased DiscoverX Co. (contract measurement) scanMAX Kinase assay panel
In short: as §1

[5] = target: T5, kinases of the scanMAX Kinase assay panel (Homo sapiens, UniProt P36507); settings: MEK2; 1 uM
T5 construct: purchased DiscoverX Co. (contract measurement) scanMAX Kinase assay panel
In short: as §1

[6] = target: T6, kinases of the scanMAX Kinase assay panel (Homo sapiens, UniProt Q13554); settings: CAMK2B; 1 uM
T6 construct: purchased DiscoverX Co. (contract measurement) scanMAX Kinase assay panel
In short: as §1

[7] = target: T7, kinases of the scanMAX Kinase assay panel (Homo sapiens, UniProt Q9UIK4); settings: DAPK2; 1 uM
T7 construct: purchased DiscoverX Co. (contract measurement) scanMAX Kinase assay panel
In short: as §1

[8] = target: T8, kinases of the scanMAX Kinase assay panel (Homo sapiens, UniProt Q99683); settings: ASK1; 1 uM
T8 construct: purchased DiscoverX Co. (contract measurement) scanMAX Kinase assay panel
T8 sequence (Q99683 1-1374): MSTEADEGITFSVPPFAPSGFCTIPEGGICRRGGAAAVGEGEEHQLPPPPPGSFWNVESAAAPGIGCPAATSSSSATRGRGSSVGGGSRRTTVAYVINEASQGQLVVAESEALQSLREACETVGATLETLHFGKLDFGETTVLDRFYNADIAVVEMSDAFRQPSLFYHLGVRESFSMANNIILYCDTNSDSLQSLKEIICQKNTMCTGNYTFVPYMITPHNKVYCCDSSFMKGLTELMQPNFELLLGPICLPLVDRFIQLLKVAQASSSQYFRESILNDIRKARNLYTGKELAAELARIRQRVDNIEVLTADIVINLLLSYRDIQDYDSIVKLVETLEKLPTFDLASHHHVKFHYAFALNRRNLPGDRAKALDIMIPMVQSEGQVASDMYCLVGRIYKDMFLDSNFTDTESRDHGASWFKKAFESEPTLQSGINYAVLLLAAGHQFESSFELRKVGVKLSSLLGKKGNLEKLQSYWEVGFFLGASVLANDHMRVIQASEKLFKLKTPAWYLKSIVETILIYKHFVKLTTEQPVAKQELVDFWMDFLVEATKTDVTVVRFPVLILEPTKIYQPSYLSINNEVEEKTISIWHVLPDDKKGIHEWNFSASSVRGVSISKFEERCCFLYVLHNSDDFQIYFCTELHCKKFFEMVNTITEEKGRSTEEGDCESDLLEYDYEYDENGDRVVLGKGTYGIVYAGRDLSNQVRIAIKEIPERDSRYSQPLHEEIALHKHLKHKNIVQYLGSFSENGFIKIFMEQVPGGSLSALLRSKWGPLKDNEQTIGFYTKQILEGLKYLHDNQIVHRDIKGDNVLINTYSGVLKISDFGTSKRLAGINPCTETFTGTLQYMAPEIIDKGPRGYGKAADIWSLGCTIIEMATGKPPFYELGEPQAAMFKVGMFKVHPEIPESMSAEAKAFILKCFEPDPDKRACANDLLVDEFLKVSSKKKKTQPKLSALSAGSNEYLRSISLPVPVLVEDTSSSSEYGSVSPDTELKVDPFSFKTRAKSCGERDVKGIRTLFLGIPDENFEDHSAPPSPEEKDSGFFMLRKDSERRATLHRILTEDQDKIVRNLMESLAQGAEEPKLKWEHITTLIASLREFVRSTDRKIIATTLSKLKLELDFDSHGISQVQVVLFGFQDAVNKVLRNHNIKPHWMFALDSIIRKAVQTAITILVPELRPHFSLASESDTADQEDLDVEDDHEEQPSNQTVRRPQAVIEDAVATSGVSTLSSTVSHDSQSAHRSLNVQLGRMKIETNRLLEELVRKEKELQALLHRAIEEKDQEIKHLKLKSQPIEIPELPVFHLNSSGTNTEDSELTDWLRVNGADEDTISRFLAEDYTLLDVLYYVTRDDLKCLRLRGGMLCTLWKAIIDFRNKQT
In short: as §1

[9] = target: T9, kinases of the scanMAX Kinase assay panel (Homo sapiens, UniProt Q04912); settings: MST1R; 1 uM
T9 construct: purchased DiscoverX Co. (contract measurement) scanMAX Kinase assay panel
In short: as §1

T4 sequence (P49760 whole entry): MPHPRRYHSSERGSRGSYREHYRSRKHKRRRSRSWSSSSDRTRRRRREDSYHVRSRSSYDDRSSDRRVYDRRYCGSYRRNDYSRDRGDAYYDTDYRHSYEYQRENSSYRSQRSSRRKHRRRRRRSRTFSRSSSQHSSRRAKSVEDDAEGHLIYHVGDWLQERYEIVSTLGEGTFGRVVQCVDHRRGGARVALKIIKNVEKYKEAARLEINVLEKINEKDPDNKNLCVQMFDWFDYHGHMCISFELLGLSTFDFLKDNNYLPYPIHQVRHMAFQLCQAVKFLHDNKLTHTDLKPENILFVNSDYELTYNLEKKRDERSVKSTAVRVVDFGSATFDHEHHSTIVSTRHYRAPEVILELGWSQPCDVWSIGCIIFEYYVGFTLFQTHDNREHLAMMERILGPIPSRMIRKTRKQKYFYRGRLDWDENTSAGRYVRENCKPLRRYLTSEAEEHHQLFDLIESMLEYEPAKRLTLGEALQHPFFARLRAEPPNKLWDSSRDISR
T2 sequence (Q13557 whole entry): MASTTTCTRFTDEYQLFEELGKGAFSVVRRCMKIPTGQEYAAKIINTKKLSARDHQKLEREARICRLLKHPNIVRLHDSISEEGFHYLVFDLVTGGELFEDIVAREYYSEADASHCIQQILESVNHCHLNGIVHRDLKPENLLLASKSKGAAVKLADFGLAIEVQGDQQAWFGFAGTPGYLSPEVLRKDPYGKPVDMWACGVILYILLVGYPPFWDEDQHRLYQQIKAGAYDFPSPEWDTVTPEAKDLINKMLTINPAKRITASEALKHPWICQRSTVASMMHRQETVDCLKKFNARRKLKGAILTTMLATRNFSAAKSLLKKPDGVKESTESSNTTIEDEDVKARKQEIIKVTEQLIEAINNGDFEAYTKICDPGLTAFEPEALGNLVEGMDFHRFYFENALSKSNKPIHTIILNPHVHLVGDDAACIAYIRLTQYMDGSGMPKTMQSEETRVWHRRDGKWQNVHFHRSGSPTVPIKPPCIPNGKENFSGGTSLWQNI
T6 sequence (Q13554 whole entry): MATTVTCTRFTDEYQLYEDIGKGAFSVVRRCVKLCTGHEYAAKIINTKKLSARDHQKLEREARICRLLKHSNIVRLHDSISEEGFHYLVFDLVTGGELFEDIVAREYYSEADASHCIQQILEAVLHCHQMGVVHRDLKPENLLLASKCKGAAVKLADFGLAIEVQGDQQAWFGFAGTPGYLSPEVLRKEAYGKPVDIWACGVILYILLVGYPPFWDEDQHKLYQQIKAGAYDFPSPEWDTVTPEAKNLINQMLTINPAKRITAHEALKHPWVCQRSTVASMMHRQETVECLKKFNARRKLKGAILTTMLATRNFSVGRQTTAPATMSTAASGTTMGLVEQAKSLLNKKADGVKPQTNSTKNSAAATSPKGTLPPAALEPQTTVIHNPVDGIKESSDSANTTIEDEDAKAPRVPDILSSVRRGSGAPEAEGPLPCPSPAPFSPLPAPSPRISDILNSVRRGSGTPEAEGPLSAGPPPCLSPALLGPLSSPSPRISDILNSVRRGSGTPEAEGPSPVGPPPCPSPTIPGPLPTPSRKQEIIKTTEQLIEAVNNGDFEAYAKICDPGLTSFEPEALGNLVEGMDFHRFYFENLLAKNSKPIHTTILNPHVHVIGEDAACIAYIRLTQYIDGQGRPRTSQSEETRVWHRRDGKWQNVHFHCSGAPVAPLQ
T7 sequence (Q9UIK4 whole entry): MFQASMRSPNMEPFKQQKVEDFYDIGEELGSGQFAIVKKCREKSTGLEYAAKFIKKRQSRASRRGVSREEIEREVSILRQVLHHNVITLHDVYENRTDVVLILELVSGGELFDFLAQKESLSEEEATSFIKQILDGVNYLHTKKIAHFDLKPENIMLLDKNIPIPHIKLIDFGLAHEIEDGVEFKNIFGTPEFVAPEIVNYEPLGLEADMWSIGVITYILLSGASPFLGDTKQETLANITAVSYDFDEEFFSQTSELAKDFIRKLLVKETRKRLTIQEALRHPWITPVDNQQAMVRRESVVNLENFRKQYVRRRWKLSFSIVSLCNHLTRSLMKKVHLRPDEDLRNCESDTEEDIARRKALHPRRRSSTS
T1 sequence (Q9H1R3 whole entry): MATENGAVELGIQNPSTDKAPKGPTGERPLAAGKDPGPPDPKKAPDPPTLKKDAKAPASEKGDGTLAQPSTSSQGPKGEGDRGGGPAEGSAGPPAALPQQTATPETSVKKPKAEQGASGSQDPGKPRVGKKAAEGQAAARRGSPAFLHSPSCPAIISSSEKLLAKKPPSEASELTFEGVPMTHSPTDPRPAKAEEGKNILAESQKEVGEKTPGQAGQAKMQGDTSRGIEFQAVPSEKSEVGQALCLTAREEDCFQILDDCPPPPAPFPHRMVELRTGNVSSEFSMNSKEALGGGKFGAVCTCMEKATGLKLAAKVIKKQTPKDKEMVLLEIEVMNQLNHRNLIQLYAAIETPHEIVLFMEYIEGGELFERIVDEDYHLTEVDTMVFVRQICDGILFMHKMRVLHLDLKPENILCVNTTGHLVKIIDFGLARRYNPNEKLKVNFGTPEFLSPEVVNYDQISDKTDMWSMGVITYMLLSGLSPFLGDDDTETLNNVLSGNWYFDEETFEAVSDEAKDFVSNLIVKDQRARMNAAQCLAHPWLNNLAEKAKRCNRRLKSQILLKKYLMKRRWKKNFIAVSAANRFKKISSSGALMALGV
T9 sequence (Q04912 25-1400): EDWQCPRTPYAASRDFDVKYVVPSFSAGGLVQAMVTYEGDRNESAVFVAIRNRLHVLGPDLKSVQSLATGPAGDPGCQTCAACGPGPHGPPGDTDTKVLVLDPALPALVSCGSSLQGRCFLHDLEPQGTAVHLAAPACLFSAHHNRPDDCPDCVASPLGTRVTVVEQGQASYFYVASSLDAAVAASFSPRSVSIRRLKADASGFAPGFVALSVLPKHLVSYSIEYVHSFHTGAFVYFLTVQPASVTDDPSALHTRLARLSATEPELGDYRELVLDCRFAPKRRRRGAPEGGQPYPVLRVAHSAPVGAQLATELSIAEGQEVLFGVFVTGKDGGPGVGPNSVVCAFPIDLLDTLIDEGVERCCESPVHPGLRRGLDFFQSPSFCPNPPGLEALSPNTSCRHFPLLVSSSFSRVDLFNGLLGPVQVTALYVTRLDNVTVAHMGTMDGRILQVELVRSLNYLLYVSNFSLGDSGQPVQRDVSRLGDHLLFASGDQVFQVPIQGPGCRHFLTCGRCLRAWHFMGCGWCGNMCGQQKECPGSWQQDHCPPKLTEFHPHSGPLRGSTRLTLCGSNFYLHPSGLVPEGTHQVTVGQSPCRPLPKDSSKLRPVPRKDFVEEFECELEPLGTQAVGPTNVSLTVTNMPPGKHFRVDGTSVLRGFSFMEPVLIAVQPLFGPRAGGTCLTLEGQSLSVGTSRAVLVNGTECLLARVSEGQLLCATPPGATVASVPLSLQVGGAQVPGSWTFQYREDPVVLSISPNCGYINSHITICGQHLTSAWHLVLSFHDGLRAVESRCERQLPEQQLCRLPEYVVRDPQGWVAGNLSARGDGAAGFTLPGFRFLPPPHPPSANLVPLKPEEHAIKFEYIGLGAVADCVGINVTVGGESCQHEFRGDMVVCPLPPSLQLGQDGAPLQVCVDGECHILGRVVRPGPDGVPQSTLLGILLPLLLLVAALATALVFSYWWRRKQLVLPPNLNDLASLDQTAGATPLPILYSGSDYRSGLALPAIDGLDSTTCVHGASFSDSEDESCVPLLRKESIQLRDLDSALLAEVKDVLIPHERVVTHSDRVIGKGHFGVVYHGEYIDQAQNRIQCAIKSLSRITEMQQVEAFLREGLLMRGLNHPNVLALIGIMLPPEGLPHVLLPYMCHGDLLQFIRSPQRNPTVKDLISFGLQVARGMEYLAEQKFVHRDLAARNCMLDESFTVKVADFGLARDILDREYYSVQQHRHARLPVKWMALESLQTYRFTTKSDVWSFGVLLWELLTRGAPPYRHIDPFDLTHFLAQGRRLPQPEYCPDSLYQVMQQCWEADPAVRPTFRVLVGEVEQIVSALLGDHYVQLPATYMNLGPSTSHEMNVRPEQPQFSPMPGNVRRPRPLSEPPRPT
T5 sequence (P36507 whole entry): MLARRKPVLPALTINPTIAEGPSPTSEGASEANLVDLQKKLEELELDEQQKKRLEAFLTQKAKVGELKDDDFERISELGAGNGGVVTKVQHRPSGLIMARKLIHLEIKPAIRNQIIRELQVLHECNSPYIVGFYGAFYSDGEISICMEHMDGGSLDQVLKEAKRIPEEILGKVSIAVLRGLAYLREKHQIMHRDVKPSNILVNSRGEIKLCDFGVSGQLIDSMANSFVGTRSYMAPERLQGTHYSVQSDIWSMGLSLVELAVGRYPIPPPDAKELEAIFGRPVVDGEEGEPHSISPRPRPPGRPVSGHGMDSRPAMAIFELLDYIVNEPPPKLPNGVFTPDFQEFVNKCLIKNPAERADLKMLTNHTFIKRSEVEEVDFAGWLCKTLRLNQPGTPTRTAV
T3 sequence (P54646 whole entry): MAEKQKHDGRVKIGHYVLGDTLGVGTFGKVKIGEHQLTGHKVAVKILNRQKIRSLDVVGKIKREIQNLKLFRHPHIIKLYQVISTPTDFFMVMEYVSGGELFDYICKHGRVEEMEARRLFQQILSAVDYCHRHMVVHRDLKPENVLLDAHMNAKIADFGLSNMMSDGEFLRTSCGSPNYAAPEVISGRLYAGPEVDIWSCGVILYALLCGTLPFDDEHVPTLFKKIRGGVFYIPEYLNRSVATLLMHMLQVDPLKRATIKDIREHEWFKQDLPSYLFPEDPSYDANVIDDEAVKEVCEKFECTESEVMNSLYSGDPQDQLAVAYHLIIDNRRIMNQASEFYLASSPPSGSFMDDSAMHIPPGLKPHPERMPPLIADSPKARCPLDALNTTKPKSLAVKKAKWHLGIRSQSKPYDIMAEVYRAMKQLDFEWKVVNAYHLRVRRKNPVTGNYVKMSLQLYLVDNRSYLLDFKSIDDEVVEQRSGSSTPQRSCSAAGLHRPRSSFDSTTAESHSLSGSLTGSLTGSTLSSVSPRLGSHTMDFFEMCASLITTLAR

SMILES	remaining binding at 1 µM [1] [%]	remaining binding at 1 µM [2] [%]	remaining binding at 1 µM [3] [%]	remaining binding at 1 µM [4] [%]	remaining binding at 1 µM [5] [%]	remaining binding at 1 µM [6] [%]	remaining binding at 1 µM [7] [%]	remaining binding at 1 µM [8] [%]	remaining binding at 1 µM [9] [%]
CCNc1nc(Nc2ccc(C(=O)N3CCC(N4CCOCC4)CC3)cc2OC)nc2[nH]cc(C(F)(F)F)c12 [Example 104, (4-((4-(ethylamino)-5-(trifluoromethyl)-7H-pyrrolo[2,3-d]pyrimidine-2-yl)amino)-3-methoxyphenyl)(4-morpholinopiperidine-1-yl)methanone]	100	66	100	0.9	83	81	35	82	95
CNc1nc(Nc2ccc(C(=O)N3CCOCC3)cc2OC)nc2[nH]cc(C#N)c12 [Example 1, 2-((2-methoxy-4-(morpholine-4-carbonyl)phenyl)amino)-4-(methylamino)-7H-pyrrolo[2,3-d]pyrimidine-5-carbonitrile]	88	82	85	5.9	93	62	11	57	88
CC1(Nc2nc(Nc3cnn([C@H]4CCN(C5COC5)C[C@@H]4F)c3Cl)nc3[nH]cc(C#N)c23)CC1 [Example 52, 2-((5-chloro-1-((3S,4S)-3-fluoro-1-(oxetane-3-yl)piperidine-4-yl)-1H-pyrazole-4-yl)amino)((1-methylcyclopropyl)amino)-7H-pyrrolo[2,3-d]pyrimidine-5-carbonitrile]	100	65	9.9	2.6	0.3	57	12	1.8	78
